Source: patent US20220125959A1, “PROSTATE-SPECIFIC MEMBRANE ANTIGEN (PSMA) INHIBITORS AS DIAGNOSTIC AND RADIONUCLIDE THERAPEUTIC AGENTS” (FIVE ELEVEN PHARMA INC., priority 2019, published 2022)

How the values were obtained:
PSMA [1] = target: T1, PSMA (Homo sapiens, UniProt Q04609); assay: PSMA competitive binding, PC-3 PIP cells with [125I]MIP-1095; set-up: expressed in transfected cells; host or cells: PC-3 PIP cells; conditions: n = 3 (a: n = 2); read-out: IC50 *(PC-3 PIP cells and [125I]MIP-1095)
Method: (§1) In vitro binding assays were carried out to determine the PSMA binding affinity of various compounds. By incubating PSMA positive cells either with: 1). LNCaP with 0.2 nM [^68Ga]PSMA-11 or [^125I]MIP-1095, as the ligand, in the presence of 10 different concentrations of competing ligands; non-specific binding was defined with 20 μM 2-PMPA (2-(phosphonomethyl)pentanedioic acid); or 2). PC-3 PIP cells with [^125I]MIP-1095 (0.18 nM diluted in PBS) in presence of different concentration of test compounds ([…] diluted in PBS containing 0.1% bovine serum albumin). Nonspecific binding (NSB) was defined with 2 μM the known PSMA inhibitor, PSMA-617. After incubation at 37° C. for 1 h, the bound and free fractions were separated by vacuum filtration through GF/B filters using a Brandel M-24R cell harvester. The filters were washed twice with cold Tris-HCl buffer (50 mM, pH=7.4), and the radioactivity on the filters was counted in a gamma counter (Wizard^2, Perkin-Elmer) with 50% efficiency. The nonspecific bound was less than 10% of the total bound. Data were analyzed using GraphPad Prism 6.0 with a nonlinear regression algorithm to obtain the half maximal inhibitory concentration (IC50).
(§2) The binding affinities to PSMA of the test compounds were measured by a competitive binding assay using either LNCap or PC-3 PIP cells suspension and the known radiotracers known to have high affinity and specificity to PSMA, [^68Ga]PSMA-11 or [^125I]MIP-1095. The IC50 values of four iodinated compounds, three DOTA, DOTAG and DOTA(GA)2 related compounds and two known PSMA inhibitors are shown in Table 1. Complexes of compound 4 and natural Ga and natural Lu were also tested. […] After labeling with radioisotope they are expected to bind to the tumor tissues over expressing PSMA binding sites.
Target sequence in this assay (Q04609 whole entry, species assumed): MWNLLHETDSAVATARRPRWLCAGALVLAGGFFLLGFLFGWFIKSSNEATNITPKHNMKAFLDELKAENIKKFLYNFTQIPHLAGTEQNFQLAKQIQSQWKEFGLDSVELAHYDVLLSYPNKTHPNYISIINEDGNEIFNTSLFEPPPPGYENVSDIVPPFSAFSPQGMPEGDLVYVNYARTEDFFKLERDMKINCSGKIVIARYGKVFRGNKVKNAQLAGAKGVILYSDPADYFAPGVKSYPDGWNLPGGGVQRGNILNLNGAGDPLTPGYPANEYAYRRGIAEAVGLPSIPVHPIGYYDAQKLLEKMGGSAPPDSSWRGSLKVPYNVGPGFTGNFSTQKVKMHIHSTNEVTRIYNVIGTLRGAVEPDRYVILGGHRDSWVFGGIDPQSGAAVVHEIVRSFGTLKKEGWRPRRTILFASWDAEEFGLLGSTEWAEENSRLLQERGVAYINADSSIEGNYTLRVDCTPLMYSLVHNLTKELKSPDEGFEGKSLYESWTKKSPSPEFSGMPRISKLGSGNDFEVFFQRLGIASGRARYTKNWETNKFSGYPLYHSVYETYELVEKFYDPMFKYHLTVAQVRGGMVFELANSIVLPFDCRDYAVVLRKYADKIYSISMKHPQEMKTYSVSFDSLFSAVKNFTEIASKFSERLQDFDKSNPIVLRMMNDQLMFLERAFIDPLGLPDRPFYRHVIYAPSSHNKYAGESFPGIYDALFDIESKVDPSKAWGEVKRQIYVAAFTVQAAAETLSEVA

PSMA [2] = target: T1, PSMA; assay: PSMA competitive binding, LNCaP cells with [68Ga]PSMA-11; set-up: LNCaP with 0.2 nM; endogenous in cells; host or cells: LNCaP cells (suspension); conditions: n = 3; read-out: IC50 (LNCaP human PCa cells and [68Ga]PSMA-11)
Method: as §1, §2
Target sequence in this assay (Q04609 whole entry): as the sequence (Q04609 whole entry, species assumed) above

PSMA [3] = target: T1, PSMA; set-up: expressed in transfected cells; host or cells: PC-3 PIP cells; conditions: ^131I labeled MIP-1095; read-out: PSMA binding affinity Ki; cited from earlier work
Target sequence in this assay (Q04609 whole entry, species assumed): as above

SMILES: O=C(O)CC[C@H](NC(=O)N[C@@H](CCCCNC(=O)[C@H](Cc1ccccc1)NC(=O)COc1ccc(C[C@H](NC(=O)CNC(=O)CCC(C(=O)O)N2CCN(CC(=O)O)CCN(C(CCC(=O)NCCOCCOCCNC(=O)CCCc3ccc(I)cc3)C(=O)O)CCN(CC(=O)O)CC2)C(=O)O)cc1)C(=O)O)C(=O)O (stereo partly drawn) [Compound 7, (4S,11S,15S)-4-benzyl-1-(4-((2S)-2-carboxy-2-(2-(4-carboxy-4-(7-(1-carboxy-18-(4-iodophenyl)-4,15-dioxo-8,11-dioxa-5,14-diazaoctadecyl)-4,10-bis(carboxymethyl)-1,4,7,10-tetraazacyclododecan-1-yl)butanamido)acetamido)ethyl)phenoxy)-2,5,13-trioxo-3,6,12,14-tetraazaheptadecane-11,15,17-tricarboxylic acid]
- IC50 (PSMA [1]): 13.6 ± 1.02 nM
- IC50 (PSMA [2]): 15.4 ± 0.8 nM

SMILES: O=C(O)CC[C@H](NC(=O)N[C@@H](CCCCNC(=O)[C@H](Cc1ccc2ccccc2c1)NC(=O)[C@H]1CC[C@H](CNC(=O)CN2CCN(CC(=O)O)CCN(CC(=O)O)CCN(CC(=O)O)CC2)CC1)C(=O)O)C(=O)O [PSMA-617, 2-[3-(1-Carboxy-5-(3-naphthalen-2-yl-2-[(4-([2-(4,7,10-tris-carboxymethyl-1,4,7,10-tetraaza-cyclododec-1-yl)-acetylamino]-methyl)-cyclohexanecarbonyl)-amino]-Propionylamino)-pentyl)-ureido]-pentanedioic acid, reference compound]
- IC50 (PSMA [1]): 10.9 ± 0.37 nM
- IC50 (PSMA [2]): 11.1 ± 0.8 nM

SMILES: O=C(O)CCC(C(=O)O)N1CCN(CC(=O)O)CCN(C(CCC(=O)NCC(=O)N[C@@H](Cc2ccc(OCC(=O)N[C@@H](Cc3ccccc3)C(=O)NCCCC[C@H](NC(=O)N[C@@H](CCC(=O)O)C(=O)O)C(=O)O)cc2)C(=O)O)C(=O)O)CCN(CC(=O)O)CC1 (stereo partly drawn) [Compound 4, (4S,11S,15S)-4-benzyl-1-(4-((2S)-2-(2-(4-(4,10-bis(carboxymethyl)-7-(1,3-dicarboxypropyl)-1,4,7,10-tetraazacyclododecan-1-yl)-4-carboxybutanamido)acetamido)-2-carboxyethyl)phenoxy)-2,5,13-trioxo-3,6,12,14-tetraazaheptadecane-11,15,17-tricarboxylic acid]
- IC50 (PSMA [1]): 33.9 ± 2.38 nM
- IC50 (PSMA [2]): 28.7 ± 1.7 nM

SMILES: O=C(O)CC[C@H](NC(=O)N[C@@H](CCCCNC(=O)[C@H](Cc1ccccc1)NC(=O)COc1ccc(C[C@H](NC(=O)CNC(=O)CCC(C(=O)O)N2CCN(CC(=O)O)CCN(CC(=O)O)CCN(CC(=O)O)CC2)C(=O)NCC(=O)NC(P(=O)(O)O)P(=O)(O)O)cc1)C(=O)O)C(=O)O (stereo partly drawn) [Compound 51, (((1S)-1-Carboxy-5-((2S)-2-(2-(4-((2S)-2-(2-(4-carboxy-4-(4,7,10-tris(carboxymethyl)-1,4,7,10-tetraazacyclododecan-1-yl)butanamido)acetamido)-3-((2-((diphosphonomethyl)amino)-2-oxoethyl)amino)-3-oxopropyl)phenoxy)acetamido)-3-phenylpropanamido)pentyl)carbamoyl)-L-glutamic acid]
- IC50 (PSMA [2]): 10.7 ± 1.6 nM

SMILES: O=C(O)CC[C@H](NC(=O)N[C@@H](CCCCNC(=O)Nc1ccc(I)cc1)C(=O)O)C(=O)O [MIP-1095]
- Ki (PSMA [3]): 4.6 nM
